Experimental data taken from ChEMBL document CHEMBL4261650, “Identification of Cyanamide-Based Janus Kinase 3 (JAK3) Covalent Inhibitors” (J Med Chem, 2018).
Blank lines part the entries; values can stand above or below the compound they belong to.

Key:
[1] = Covalent reactivity with N-alpha-acetyl-L-lysine assessed as half life; type: physicochemical; details: N-alpha-acetyl-L-lysine solution
[2] = GSH reactivity in phosphate buffer assessed as half life at 20 uM after 1 hr in presence of L-glutathione by LC-MS/MS analysis; type: physicochemical; details: phosphate buffer with L-glutathione
[3] = Drug level in human liver microsomes treated with 10 uM N-(6-(7H-Pyrrolo[2,3-d]pyrimidin-4-yl)-2,3-dihydro-1H-inden-1-yl)cyanamide (11), (S)-N-(6-(7H-Pyrrolo[2,3-d]pyrimidin-4-yl)-2,3-dihydro-1H-inden-1-yl)cyanamide assessed as compound formation at 10 uM in presence of GSH and NADPH after 15 to 45 mins by LC-MS/MS analysis; type: ADME, microsome
[4] = Half life in rat whole blood; type: ADME, tissue-based
[5] = Half life in human whole blood; type: ADME, tissue-based
[6] = Apparent permeability across apical to basolateral side in RRCK cells after […] by HPLC analysis; type: ADME, cell-based, Canis lupus familiaris, MDCKII-LE; details: dog, MDCK
[7] = Clearance in rat at 1 mg/kg, iv administered as single dose by LC-MS/MS analysis; type: ADME, organism-based; details: in vivo
[8] = AUC in rat at 1 mg/kg, iv administered as single dose by LC-MS/MS analysis; type: ADME, organism-based; details: in vivo
[9] = AUC in rat at 3 mg/kg, po administered as single dose by LC-MS/MS analysis; type: ADME, organism-based; details: in vivo
[10] = AUC in rat at 1 mg/kg, iv co-administered with CYP450 inhibitor ABT by LC-MS/MS analysis; type: ADME, organism-based; details: in vivo
[11] = Half life in rat at 1 mg/kg, iv administered as single dose by LC-MS/MS analysis; type: ADME, organism-based; details: in vivo
[12] = Half life in rat at 1 mg/kg, iv co-administered with CYP450 inhibitor ABT by LC-MS/MS analysis; type: ADME, organism-based; details: in vivo
[13] = Oral bioavailability in rat at 3 mg/kg administered as single dose by LC-MS/MS analysis; type: ADME, organism-based; details: in vivo
[14] = Clearance in rat at 1 mg/kg, iv co-administered with CYP450 inhibitor ABT by LC-MS/MS analysis; type: ADME, organism-based; details: in vivo
[15] = Volume of distribution at steady state in rat at 1 mg/kg, iv administered as single dose by LC-MS/MS analysis; type: ADME, organism-based; details: in vivo, read-out: Vdss
[16] = Volume of distribution at steady state in rat at 1 mg/kg, iv co-administered with CYP450 inhibitor ABT by LC-MS/MS analysis; type: ADME, organism-based; details: in vivo, read-out: Vdss
[17] = Drug metabolism in human liver microsomes assessed as 2-((R)-3-(N-((S)-6-(7H-pyrrolo[2,3-d]pyrimidin-4-yl)-2,3-dihydro-1H-inden-1-yl)carbamimidoylthio)-2-aminopropanamido)acetic acid metabolite formation at 10 uM in presence of GSH and NADPH after 15 to 45 mins by LC-MS/MS analysis; type: ADME, microsome
[18] = Drug metabolism in human liver microsomes assessed as (S)-1-(6-(7H-pyrrolo[2,3-d]pyrimidin-4-yl)-2,3-dihydro-1H-inden-1-yl)urea metabolite formation at 10 uM in presence of GSH and NADPH after 15 to 45 mins by LC-MS/MS analysis; type: ADME, microsome
[19] = Drug metabolism in human liver microsomes assessed as (S)-4-amino-6-(3-cyanamido-2,3-dihydro-1H-inden-5-yl)pyrimidine-5-carboxylic acid metabolite formation at 10 uM in presence of GSH and NADPH after 15 to 45 mins by LC-MS/MS analysis; type: ADME, microsome
[20] = Apparent intrinsic clearance in rat liver microsomes; type: ADME, microsome; details: read-out: CLH(app)
[21] = Apparent intrinsic clearance in human liver microsomes; type: ADME, microsome; details: read-out: CLH(app)

Structure (SMILES): C1CNC1 [AZETIDINE]
half-life [1]: 155 min

Structure (SMILES): CN(C#N)C1CCc2ccc(-c3ncnc4[nH]ccc34)cc21 (stereo unspecified)
half-life at 20 µM [2]: > 190 min

Structure (SMILES): N=C(N[C@H]1CCc2ccc(-c3ncnc4[nH]ccc34)cc21)SC[C@H](N)C(=O)NCC(=O)O
Drug metabolism [3]: Metabolite_Detected

Structure (SMILES): Cn1nccc1S(=O)(=O)N[C@@H]1C[C@H](NC#N)c2cc(-c3ncnc4[nH]ccc34)ccc21
half-life at 20 µM [2]: 22 min

Structure (SMILES): N#CN[C@H]1CCc2ccc(-c3ncnc4[nH]cc(-c5cccc(CO)c5)c34)cc21
half-life at 20 µM [2]: 69 min
half-life [4]: 59 min
half-life [5]: 48 min
Papp A→B at […] [6]: 4 ×10⁻⁶ cm/s

Structure (SMILES): C1CCNC1 [PYRROLIDINE]
half-life [1]: 462 min

Structure (SMILES): N=C(N[C@H]1CCc2ccc(-c3ncnc4[nH]ccc34)cc21)SC[C@H](NC(=O)CC[C@H](N)C(=O)O)C(=O)NCC(=O)O
Drug metabolism [3]: Metabolite_Detected

Structure (SMILES): CS(=O)(=O)N[C@@H]1C[C@H](NC#N)c2cc(-c3ncnc4[nH]ccc34)ccc21
half-life at 20 µM [2]: 23 min
half-life [4]: 31 min
half-life [5]: 208 min
Papp A→B at […] [6]: < 1 ×10⁻⁶ cm/s

Structure (SMILES): C1CCNCC1 [PIPERIDINE]
half-life [1]: 666 min

Structure (SMILES): N#CN[C@H]1CCc2ccc(-c3ncnc(N)c3C(=O)O)cc21
Drug metabolism [3]: Metabolite_Detected

Structure (SMILES): N#CN[C@H]1C[C@@H](NS(=O)(=O)c2cccc(C#N)c2)c2ccc(-c3ncnc4[nH]ccc34)cc21
half-life at 20 µM [2]: 24 min
Papp A→B at […] [6]: 6 ×10⁻⁶ cm/s

Structure (SMILES): COc1ccc(S(=O)(=O)N[C@@H]2C[C@H](NC#N)c3cc(-c4ncnc5[nH]ccc45)ccc32)cc1
half-life at 20 µM [2]: 35 min

Structure (SMILES): CC1(NC#N)CCc2ccc(-c3ncnc4[nH]ccc34)cc21 (stereo unspecified)
half-life at 20 µM [2]: > 120 min

Structure (SMILES): NC(=O)N[C@H]1CCc2ccc(-c3ncnc4[nH]ccc34)cc21
Drug metabolism [3]: Metabolite_Detected

Structure (SMILES): C[C@@]1(NC#N)CCc2ccc(-c3ncnc4[nH]ccc34)cc21
half-life at 20 µM [2]: > 120 min

Structure (SMILES): N#CN[C@H]1C[C@@H](NS(=O)(=O)c2cccc(F)c2)c2ccc(-c3ncnc4[nH]ccc34)cc21
half-life at 20 µM [2]: 80 min
Papp A→B at […] [6]: 10 ×10⁻⁶ cm/s

Structure (SMILES): C[C@]1(NC#N)CCc2ccc(-c3ncnc4[nH]ccc34)cc21
half-life at 20 µM [2]: > 120 min
half-life [4]: > 360 min
half-life [5]: > 360 min
Papp A→B at […] [6]: 19 ×10⁻⁶ cm/s

Structure (SMILES): N#CN[C@H]1C[C@H](O)c2ccc(-c3ncnc4[nH]ccc34)cc21
half-life at 20 µM [2]: 40 min

Structure (SMILES): N#CN[C@@H]1c2cc(-c3ncnc4[nH]ccc34)ccc2C[C@H]1O
half-life at 20 µM [2]: 47 min

Structure (SMILES): N#CN[C@H]1C[C@@H](O)c2ccc(-c3ncnc4[nH]ccc34)cc21
half-life at 20 µM [2]: 28 min
half-life [4]: 20 min
half-life [5]: 339 min
Papp A→B at […] [6]: 2 ×10⁻⁶ cm/s

Structure (SMILES): COCCS(=O)(=O)N[C@@H]1C[C@H](NC#N)c2cc(-c3ncnc4[nH]ccc34)ccc21
half-life at 20 µM [2]: 70 min

Structure (SMILES): C[C@@H]1Cc2ccc(-c3ncnc4[nH]ccc34)cc2[C@@H]1NC#N
half-life at 20 µM [2]: 95 min

The remaining lines, values ahead:

half-life at 20 µM [2]: 36 min
Structure (SMILES): N#CNC1CCOc2ccc(-c3ncnc4[nH]ccc34)cc21 (stereo unspecified)

half-life at 20 µM [2]: 3 min
half-life [4]: 4 min
half-life [5]: 5 min
Structure (SMILES): C=CC(=O)N1CCOc2ccc(-c3ncnc4[nH]cc(CCOC)c34)cc21

half-life at 20 µM [2]: 81 min
Structure (SMILES): N#CN[C@@H]1CCc2ccc(-c3ncnc4[nH]ccc34)cc21

half-life at 20 µM [2]: 94 min
half-life [4]: 61 min
half-life [5]: 61 min
Papp A→B at […] [6]: 2 ×10⁻⁶ cm/s
Structure (SMILES): N#CN[C@H]1CCc2ccc(-c3ncnc4[nH]cc(-c5ccccc5)c34)cc21

half-life at 20 µM [2]: 74 min
Structure (SMILES): COCCc1c[nH]c2ncnc(-c3ccc4c(c3)C(NC#N)CC4)c12 (stereo unspecified)

half-life at 20 µM [2]: 56 min
half-life [4]: 29 min
half-life [5]: 148 min
clearance [7]: 455 mL/min/kg
Papp A→B at […] [6]: 10 ×10⁻⁶ cm/s
Structure (SMILES): C=CC(=O)Nc1cccc(-c2ncnc3[nH]cc(CCOC)c23)c1

half-life at 20 µM [2]: 69 min
half-life [4]: 150 min
half-life [5]: > 360 min
AUC [8]: 466 ng·h/mL
AUC [9]: 240 ng·h/mL
AUC [10]: 488 ng·h/mL
half-life [11]: 16.2 min
half-life [12]: 45 min
bioavailability [13]: 16%
clearance [7]: 36 mL/min/kg
clearance [14]: 34 mL/min/kg
Vd [15]: 0.35 L/kg
Vd [16]: 0.63 L/kg
Papp A→B at […] [6]: 11 ×10⁻⁶ cm/s
Drug metabolism [17]: Metabolite_Detected
Drug metabolism [18]: Metabolite_Detected
Drug metabolism [19]: Metabolite_Detected
microsomal CLint [20]: 100 µL/min/mg
microsomal CLint [21]: 50 µL/min/mg
Structure (SMILES): N#CN[C@H]1CCc2ccc(-c3ncnc4[nH]ccc34)cc21

half-life at 20 µM [2]: 70 min
Structure (SMILES): COCCc1c[nH]c2ncnc(-c3ccc4c(c3)C(NC#N)CCO4)c12 (stereo unspecified)

half-life at 20 µM [2]: 67 min
Structure (SMILES): N#CNC1CCc2ccc(-c3ncnc4[nH]ccc34)cc21 (stereo unspecified)

half-life at 20 µM [2]: > 120 min
Papp A→B at […] [6]: 14 ×10⁻⁶ cm/s
Structure (SMILES): COCCc1c[nH]c2ncnc(-c3ccc4c(c3)N(C#N)CC(F)(F)O4)c12

half-life at 20 µM [2]: 41 min
Structure (SMILES): N#CN[C@H]1CCOc2ccc(-c3ncnc4[nH]ccc34)cc21

half-life at 20 µM [2]: > 190 min
Structure (SMILES): COCCc1c[nH]c2ncnc(-c3ccc4c(c3)N(C#N)CCO4)c12
